Measurements published in ChEMBL document CHEMBL4184317, “Discovery of Tetrahydroquinoxalines as Bromodomain and Extra-Terminal Domain (BET) Inhibitors with Selectivity for the Second Bromodomain” (J Med Chem, 2018).
In brackets after ≈: the same amount, converted by molar mass.

Assays:
[1] = biological target: T1, Bromodomain-containing protein 3 (Homo sapiens, UniProt Q15059); assay: Selectivity ratio of Kd for human partial length DNA-tagged BRD3 BD1 to Kd for human partial length DNA-tagged BRD3 BD2
[2] = biological target: T1, Bromodomain-containing protein 3; assay: Binding affinity to human partial length DNA-tagged BRD3 BD1 expressed in bacterial by BROMOscan method
Target sequence in this assay (Q15059 whole entry): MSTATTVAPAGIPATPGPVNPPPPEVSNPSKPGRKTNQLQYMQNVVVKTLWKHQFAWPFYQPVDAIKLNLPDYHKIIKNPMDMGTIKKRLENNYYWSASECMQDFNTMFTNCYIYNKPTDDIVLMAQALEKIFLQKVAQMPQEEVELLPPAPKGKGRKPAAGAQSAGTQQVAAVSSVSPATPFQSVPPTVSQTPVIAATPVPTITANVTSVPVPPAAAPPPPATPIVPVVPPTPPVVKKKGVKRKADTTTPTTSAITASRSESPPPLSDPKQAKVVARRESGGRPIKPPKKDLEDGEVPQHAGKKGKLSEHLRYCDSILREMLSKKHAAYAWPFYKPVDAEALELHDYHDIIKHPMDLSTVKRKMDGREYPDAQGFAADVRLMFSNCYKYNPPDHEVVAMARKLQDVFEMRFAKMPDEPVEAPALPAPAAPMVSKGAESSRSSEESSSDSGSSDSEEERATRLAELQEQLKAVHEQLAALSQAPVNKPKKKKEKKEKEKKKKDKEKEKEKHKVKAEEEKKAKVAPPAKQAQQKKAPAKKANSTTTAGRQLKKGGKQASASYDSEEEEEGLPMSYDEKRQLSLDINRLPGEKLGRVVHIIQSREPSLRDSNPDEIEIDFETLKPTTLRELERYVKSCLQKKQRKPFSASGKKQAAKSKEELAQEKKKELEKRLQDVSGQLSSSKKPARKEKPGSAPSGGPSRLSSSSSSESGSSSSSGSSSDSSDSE

[3] = biological target: SWI/SNF-related matrix-associated actin-dependent regulator of chromatin subfamily A member 4 (Homo sapiens, UniProt P51532); assay: Binding affinity to human partial length DNA-tagged SMARCA4 expressed in bacteria by BROMOscan method
[4] = test system: Blood; assay: Antiinflammatory activity in human whole blood assessed as inhibition of LPS-induced MCP1 release preincubated for 30 mins followed by LPS challenge measured after 24 hrs by immunoassay; format: functional, tissue-based
[5] = biological target: Histone acetyltransferase KAT2B (Homo sapiens, UniProt Q92831); assay: Binding affinity to human partial length DNA-tagged PCAF expressed in mammalian expression system by BROMOscan method
[6] = biological target: Bromodomain-containing protein 9 (Homo sapiens, UniProt Q9H8M2); assay: Binding affinity to human partial length DNA-tagged BRD9 isoform 1 expressed in bacteria by BROMOscan method
[7] = biological target: T2, Bromodomain-containing protein 4 (Homo sapiens, UniProt O60885); assay: Selectivity ratio of Kd for human partial length DNA-tagged BRD4 isoform long BD1 to Kd for human partial length DNA-tagged BRD4 isoform long BD2
[8] = biological target: Transcription initiation factor TFIID subunit 1 (Homo sapiens, UniProt P21675); assay: Binding affinity to human partial length DNA-tagged TAF1 BD2 expressed in bacterial by BROMOscan method
[9] = organism: Homo sapiens; assay: Selectivity ratio of IC50 for BRDT BD1 (unknown origin) to IC50 for BRDT BD2 (unknown origin)
[10] = biological target: T3, Bromodomain-containing protein 2 (Homo sapiens, UniProt P25440); assay: Inhibition of human BRD2 BD2 after 30 mins by TR-FRET assay
[11] = biological target: T2, Bromodomain-containing protein 4; assay: Binding affinity to human partial length DNA-tagged BRD4 isoform long BD2 expressed in bacterial by BROMOscan method
[12] = biological target: T4, Protein polybromo-1 (Homo sapiens, UniProt Q86U86); assay: Binding affinity to human partial length DNA-tagged PBRM1 BD5 expressed in bacteria by BROMOscan method
[13] = Solubility of the compound in FaSSIF at pH 6.5 after 16 hrs by HPLC method; format: physicochemical
[14] = biological target: T3, Bromodomain-containing protein 2; assay: Binding affinity to human partial length DNA-tagged BRD2 isoform 1 BD2 expressed in bacterial by BROMOscan method
[15] = biological target: T4, Protein polybromo-1; assay: Binding affinity to human partial length DNA-tagged PBRM1 BD1 expressed in bacteria by BROMOscan method
[16] = organism: Homo sapiens; assay: Selectivity ratio of IC50 for BRD3 BD1 (unknown origin) to IC50 for BRD3 BD2 (unknown origin)
[17] = Solubility of the compound in pH 7.4 phosphate buffered saline by chemiluminescent nitrogen detection method; format: physicochemical
[18] = biological target: Histone acetyltransferase p300 (Homo sapiens, UniProt Q09472); assay: Binding affinity to human partial length DNA-tagged EP300 expressed in bacteria by BROMOscan method
[19] = biological target: T2, Bromodomain-containing protein 4; assay: Binding affinity to human partial length DNA-tagged BRD4 isoform long BD1 expressed in bacterial by BROMOscan method
[20] = biological target: Bromodomain and WD repeat-containing protein 1 (Homo sapiens, UniProt Q9NSI6); assay: Binding affinity to human partial length DNA-tagged […] BD2 expressed in bacterial by BROMOscan method
[21] = biological target: T5, Peregrin (Homo sapiens, UniProt P55201); assay: Binding affinity to human partial length DNA-tagged BRPF1 expressed in bacterial by BROMOscan method
T5 sequence (P55201 whole entry): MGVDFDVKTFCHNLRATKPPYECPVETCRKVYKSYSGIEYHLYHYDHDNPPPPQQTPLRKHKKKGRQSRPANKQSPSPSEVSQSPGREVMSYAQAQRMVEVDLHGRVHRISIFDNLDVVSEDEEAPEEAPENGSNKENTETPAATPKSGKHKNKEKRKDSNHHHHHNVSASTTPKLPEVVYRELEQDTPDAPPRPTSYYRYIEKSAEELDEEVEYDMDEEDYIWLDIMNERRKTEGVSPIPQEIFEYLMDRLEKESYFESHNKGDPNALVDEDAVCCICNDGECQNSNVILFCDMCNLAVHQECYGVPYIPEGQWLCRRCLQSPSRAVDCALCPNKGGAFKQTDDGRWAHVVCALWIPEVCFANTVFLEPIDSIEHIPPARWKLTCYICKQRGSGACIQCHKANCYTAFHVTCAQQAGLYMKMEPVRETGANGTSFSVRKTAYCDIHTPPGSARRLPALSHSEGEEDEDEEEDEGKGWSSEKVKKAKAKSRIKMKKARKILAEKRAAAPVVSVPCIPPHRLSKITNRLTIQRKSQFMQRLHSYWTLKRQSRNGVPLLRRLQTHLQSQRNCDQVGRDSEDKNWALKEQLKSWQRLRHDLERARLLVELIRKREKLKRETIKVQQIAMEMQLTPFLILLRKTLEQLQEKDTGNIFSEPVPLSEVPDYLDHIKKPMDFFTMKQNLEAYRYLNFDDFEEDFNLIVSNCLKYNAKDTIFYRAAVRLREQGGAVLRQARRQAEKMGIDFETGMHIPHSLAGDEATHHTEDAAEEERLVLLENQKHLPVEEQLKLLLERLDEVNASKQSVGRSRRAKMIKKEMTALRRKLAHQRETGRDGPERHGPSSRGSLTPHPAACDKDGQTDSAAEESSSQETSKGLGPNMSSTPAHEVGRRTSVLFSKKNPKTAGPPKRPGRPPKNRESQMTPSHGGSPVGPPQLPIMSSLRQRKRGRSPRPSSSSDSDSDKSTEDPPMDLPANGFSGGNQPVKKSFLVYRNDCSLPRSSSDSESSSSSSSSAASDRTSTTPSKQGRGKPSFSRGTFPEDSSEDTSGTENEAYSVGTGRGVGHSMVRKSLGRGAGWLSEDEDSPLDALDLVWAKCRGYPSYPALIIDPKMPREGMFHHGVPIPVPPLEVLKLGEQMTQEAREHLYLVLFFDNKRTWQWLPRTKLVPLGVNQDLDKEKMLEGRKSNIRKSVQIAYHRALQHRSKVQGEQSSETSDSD

[22] = biological target: Histone acetyltransferase KAT2A (Homo sapiens, UniProt Q92830); assay: Binding affinity to human partial length DNA-tagged GCN5L2 expressed in bacteria by BROMOscan method
[23] = biological target: T1, Bromodomain-containing protein 3; assay: Binding affinity to human partial length DNA-tagged BRD3 BD2 expressed in bacterial by BROMOscan method
Target sequence in this assay (Q15059 whole entry): as the sequence (Q15059 whole entry) above

[24] = biological target: Bromodomain adjacent to zinc finger domain protein 2A (Homo sapiens, UniProt Q9UIF9); assay: Binding affinity to human partial length DNA-tagged BAZ2A expressed in bacterial by BROMOscan method
[25] = biological target: Chromatin remodeling regulator CECR2 (Homo sapiens, UniProt Q9BXF3); assay: Binding affinity to human partial length DNA-tagged CECR2 expressed in bacteria by BROMOscan method

T4 sequence (Q86U86 whole entry): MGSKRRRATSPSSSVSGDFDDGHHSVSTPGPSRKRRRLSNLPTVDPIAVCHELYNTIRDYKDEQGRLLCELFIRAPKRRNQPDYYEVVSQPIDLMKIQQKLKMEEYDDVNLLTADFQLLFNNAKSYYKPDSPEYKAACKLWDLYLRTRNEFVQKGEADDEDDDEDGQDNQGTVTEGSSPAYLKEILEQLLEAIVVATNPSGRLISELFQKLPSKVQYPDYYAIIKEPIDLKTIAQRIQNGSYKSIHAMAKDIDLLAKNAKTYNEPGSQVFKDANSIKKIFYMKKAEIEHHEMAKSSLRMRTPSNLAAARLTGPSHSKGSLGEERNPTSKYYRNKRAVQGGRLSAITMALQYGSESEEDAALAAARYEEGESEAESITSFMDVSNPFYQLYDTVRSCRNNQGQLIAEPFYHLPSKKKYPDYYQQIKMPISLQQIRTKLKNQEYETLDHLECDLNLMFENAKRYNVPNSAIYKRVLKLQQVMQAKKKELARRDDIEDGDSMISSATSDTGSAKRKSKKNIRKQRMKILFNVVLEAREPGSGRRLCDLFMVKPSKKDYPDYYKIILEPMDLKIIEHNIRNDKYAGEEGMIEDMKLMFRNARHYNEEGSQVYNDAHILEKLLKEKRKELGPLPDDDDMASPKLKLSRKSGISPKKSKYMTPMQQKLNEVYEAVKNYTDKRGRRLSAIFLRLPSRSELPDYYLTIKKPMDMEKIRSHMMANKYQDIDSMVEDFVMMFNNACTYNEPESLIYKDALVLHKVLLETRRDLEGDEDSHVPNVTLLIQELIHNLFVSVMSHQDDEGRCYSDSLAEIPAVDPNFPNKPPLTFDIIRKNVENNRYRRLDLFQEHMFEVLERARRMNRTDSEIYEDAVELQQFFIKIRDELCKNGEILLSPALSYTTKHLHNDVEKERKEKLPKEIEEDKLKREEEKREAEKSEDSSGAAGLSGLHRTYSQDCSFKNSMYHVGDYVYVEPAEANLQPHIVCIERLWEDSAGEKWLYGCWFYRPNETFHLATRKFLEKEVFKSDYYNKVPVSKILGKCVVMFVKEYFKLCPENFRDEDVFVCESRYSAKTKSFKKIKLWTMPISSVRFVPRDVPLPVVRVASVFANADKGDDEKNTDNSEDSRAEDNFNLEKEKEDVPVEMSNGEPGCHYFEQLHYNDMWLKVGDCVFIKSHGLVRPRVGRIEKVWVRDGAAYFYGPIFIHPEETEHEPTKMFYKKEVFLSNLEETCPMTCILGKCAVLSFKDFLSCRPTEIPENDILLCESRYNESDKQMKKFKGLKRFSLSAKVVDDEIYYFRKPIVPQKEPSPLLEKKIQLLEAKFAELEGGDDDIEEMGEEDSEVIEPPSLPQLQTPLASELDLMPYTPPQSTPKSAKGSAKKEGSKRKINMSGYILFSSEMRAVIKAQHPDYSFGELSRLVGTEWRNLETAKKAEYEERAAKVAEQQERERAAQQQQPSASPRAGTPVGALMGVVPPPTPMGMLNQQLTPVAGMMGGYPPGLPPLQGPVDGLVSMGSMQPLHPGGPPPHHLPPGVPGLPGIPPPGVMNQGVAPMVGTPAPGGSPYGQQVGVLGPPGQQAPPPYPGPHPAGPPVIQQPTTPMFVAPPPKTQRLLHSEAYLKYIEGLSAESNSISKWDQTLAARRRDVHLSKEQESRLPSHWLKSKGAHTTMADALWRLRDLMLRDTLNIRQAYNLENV
T3 sequence (P25440 whole entry, canonical isoform): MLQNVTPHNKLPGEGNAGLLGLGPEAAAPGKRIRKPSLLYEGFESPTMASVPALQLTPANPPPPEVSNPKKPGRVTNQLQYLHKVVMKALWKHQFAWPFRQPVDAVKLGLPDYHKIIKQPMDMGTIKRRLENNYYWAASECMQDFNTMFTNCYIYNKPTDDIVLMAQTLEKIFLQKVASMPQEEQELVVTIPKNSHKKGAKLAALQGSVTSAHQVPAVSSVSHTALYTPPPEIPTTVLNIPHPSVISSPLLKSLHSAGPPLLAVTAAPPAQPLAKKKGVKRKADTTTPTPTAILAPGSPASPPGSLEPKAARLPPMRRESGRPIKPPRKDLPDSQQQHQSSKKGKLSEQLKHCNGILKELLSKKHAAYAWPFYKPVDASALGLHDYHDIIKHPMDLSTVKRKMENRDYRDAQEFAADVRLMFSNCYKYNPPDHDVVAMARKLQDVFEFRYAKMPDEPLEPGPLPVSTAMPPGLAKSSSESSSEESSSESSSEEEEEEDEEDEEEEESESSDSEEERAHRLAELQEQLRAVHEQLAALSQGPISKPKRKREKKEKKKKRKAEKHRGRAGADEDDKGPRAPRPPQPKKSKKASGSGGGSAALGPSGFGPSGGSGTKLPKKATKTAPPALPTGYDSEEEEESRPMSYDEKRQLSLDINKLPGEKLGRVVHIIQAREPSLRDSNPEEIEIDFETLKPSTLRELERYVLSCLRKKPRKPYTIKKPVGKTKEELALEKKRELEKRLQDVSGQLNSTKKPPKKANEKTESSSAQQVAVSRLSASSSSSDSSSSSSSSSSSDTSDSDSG
Chain of Transcription initiation factor TFIID subunit 1 (P21675 whole entry): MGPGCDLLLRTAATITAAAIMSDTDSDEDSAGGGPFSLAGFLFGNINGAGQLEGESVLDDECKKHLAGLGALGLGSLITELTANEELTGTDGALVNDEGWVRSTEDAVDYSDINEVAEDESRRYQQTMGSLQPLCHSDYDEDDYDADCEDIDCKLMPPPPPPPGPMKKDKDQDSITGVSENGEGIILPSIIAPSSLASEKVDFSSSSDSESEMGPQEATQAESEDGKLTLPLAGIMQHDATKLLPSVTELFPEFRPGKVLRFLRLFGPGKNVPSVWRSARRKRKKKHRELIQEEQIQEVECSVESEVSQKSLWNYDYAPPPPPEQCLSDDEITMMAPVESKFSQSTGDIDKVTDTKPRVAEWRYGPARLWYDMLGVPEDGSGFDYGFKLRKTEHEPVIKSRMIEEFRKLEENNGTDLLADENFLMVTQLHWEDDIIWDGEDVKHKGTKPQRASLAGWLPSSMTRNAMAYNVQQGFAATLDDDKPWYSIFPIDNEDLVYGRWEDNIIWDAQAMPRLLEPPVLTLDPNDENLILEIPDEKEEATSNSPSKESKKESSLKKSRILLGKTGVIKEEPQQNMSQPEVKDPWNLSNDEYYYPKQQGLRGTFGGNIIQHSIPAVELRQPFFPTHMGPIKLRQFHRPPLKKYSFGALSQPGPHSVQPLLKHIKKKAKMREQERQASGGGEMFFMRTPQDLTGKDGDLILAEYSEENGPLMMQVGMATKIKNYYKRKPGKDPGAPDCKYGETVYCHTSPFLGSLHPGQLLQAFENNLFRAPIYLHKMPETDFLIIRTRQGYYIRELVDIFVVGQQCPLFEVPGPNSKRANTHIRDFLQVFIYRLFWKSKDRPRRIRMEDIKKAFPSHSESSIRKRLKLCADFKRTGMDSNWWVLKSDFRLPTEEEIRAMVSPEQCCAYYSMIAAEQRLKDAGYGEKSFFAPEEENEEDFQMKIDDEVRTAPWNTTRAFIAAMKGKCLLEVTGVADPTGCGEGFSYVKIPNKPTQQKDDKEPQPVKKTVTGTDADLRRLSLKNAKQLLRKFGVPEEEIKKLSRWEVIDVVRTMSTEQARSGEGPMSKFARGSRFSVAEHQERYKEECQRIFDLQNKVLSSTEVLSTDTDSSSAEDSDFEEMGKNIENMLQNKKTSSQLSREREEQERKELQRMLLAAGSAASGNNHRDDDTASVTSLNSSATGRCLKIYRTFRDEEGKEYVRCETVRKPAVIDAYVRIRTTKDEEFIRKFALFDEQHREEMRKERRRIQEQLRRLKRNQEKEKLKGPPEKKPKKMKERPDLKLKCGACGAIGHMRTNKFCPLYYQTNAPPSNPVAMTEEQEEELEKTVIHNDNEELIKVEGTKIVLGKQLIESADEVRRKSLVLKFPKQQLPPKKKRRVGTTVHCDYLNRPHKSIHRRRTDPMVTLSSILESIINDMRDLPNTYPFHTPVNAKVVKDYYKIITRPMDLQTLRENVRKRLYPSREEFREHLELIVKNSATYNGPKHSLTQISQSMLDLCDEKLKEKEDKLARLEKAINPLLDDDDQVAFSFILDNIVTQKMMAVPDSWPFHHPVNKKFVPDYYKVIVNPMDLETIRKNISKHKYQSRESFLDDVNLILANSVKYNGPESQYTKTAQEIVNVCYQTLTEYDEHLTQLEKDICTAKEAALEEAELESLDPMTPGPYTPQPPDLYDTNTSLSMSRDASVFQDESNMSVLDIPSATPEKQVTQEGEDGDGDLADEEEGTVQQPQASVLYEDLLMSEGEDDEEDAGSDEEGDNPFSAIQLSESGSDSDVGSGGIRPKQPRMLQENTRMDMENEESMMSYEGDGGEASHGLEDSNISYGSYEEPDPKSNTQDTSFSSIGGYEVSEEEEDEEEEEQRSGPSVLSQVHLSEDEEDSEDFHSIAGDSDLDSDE

## CC(=O)N1c2ccc(C3=CCNCC3)cc2N(Cc2ccccc2CO)C[C@@H]1C1CC1
[1]
  Selectivity ratio: 47
[2]
  Kd: 912 nM
[3]
  Kd: > 30200 nM
[4]
  IC50: 1000 nM
[5]
  Kd: > 30200 nM
[6]
  Kd: > 30200 nM
[7]
  Selectivity ratio: 229
[8]
  Kd: 14500 nM
[9]
  Ratio IC50: 8
[10]
  IC50: 316 nM
[11]
  Kd: 6.61 nM
[12]
  Kd: > 30200 nM
[13]
  solubility at 16 h: 386 µg/mL (≈ 924 µM)
[14]
  Kd: 32.4 nM
[15]
  Kd: > 30200 nM
[16]
  Ratio IC50: 25
[17]
  solubility: ≥ 418 µM
[18]
  Kd: > 30200 nM
[19]
  Kd: 1550 nM
[20]
  Kd: 15100 nM
[21]
  Kd: 2450 nM
[22]
  Kd: > 30200 nM
[23]
  Kd: 19.5 nM
[24]
  Kd: > 30200 nM
[25]
  Kd: > 30200 nM
